Data set [1] can be described thus: Stock solution stability (methanol), HPLC-DAD. The data set is classed as physicochemical. Particulars: stock solution in methanol, n = 3; for recovery at 6 h, 1000 ng/ml / recovery at 6 h, 10000 ng/ml / recovery at 6 h, 25000 ng/ml: 6 h at room temperature, read-out: Stock solution stability (room temp.) Recovery%; for recovery at 30 days, 1000 ng/ml / recovery at 30 days, 10000 ng/ml / recovery at 30 days, 25000 ng/ml: 30 days at 4 °C; for recovery at 6 h, 10000 ng/ml / recovery at 30 days, 10000 ng/ml: 10,000 ng/ml; for recovery at 6 h, 25000 ng/ml / recovery at 30 days, 25000 ng/ml: 25,000 ng/ml.

Data set [2] in a line: Stability of the studied drugs in rat plasma (freeze-thaw, bench-top, long-term), HPLC-DAD. The data set is classed as in vitro ADME. The settings on record: n = 3; for recovery at 6 h, 1000 ng/ml / recovery at 35 days, 1000 ng/ml / recovery at 1000 ng/ml: rat plasma; for recovery at 6 h, 1000 ng/ml / recovery at 6 h, 10000 ng/ml / recovery at 6 h, 25000 ng/ml: 6 h at room temperature; for recovery at 35 days, 1000 ng/ml / recovery at 35 days, 10000 ng/ml / recovery at 35 days, 25000 ng/ml: 35 days at -20 °C; for recovery at 1000 ng/ml / recovery at 10000 ng/ml / recovery at 25000 ng/ml: three cycles -20 °C / room temperature; for recovery at 6 h, 10000 ng/ml / recovery at 35 days, 10000 ng/ml / recovery at 10000 ng/ml: rat plasma, 10,000 ng/ml; for recovery at 6 h, 25000 ng/ml / recovery at 35 days, 25000 ng/ml / recovery at 25000 ng/ml: rat plasma, 25,000 ng/ml. Here is the method: Stability studies were conducted by preparing low, medium and high plasma QC samples in triplicates under different conditions and comparing them with freshly prepared quality control samples. Namely, three freeze-thaw cycles (freeze at -20 °C then thaw at room temperature for three cycles), bench-top stability testing for 6 h at room temperature and long-term stability testing for 35 days at -20 °C.

For data set [3], the system named is plasma albumin. The settings on record: cited from earlier work.
Data set [4] is described as follows: Drug interaction pharmacokinetic study of LES and ETC, single oral dose, plasma levels by HPLC-DAD. The data set is classed as in vivo, Sprague-Dawley rats. Particulars: for k el: read-out: Ke (converted); for AUC: n=5; for Change of Ke: after repeated administration of the other drug vs alone; for Change of area under the curve (AUC): single oral dose following the repeated administration of the other drug vs alone. The text has this:
The HPLC-DAD system consisted of Agilent 1200 series (auto-injector, quaternary pump, vacuum degasser and diode array and multiple wavelength detector G1315 C/D and G1365 C/D) connected to a computer loaded with Agilent ChemStation Software (Agilent Technologies, Santa Clara, CA, USA). […] The chromatographic separation was achieved using a Zorbax Eclipse Plus C18 (4.6 × 250 mm, 5 μm particle size) column attached to Zorbax Eclipse Plus C18 (4.6 × 12.5 mm, 5 μm particle size) analytical guard column (Agilent Technologies, Santa Clara, CA, USA). The gradient elution was composed of the mobile phase: acetonitrile and 0.05 M potassium dihydrogen orthophosphate eluted in the ratios and at flow rates listed in Table 1 using an injection volume of 50 µL. All determinations were performed at 25 °C. All pH measurements were made using a Hanna pH meter, (RI, USA). Calibration was done using standard buffers of pH 4 and 7 at room temperature.
The internal standard DIC (0.05 mL) was added to each 0.2 mL rat plasma sample. To the rat plasma sample, 0.6 mL of acetonitrile were added. In order to equalize the final volumes in both; the standard calibration curve samples and the rat plasma samples, up to 1 mL of methanol were added. The samples were covered, vortexed for 1 min at high speed followed by centrifugation for 10 min at ~ 2500 × g. The organic layer was transferred to HPLC autosampler vials. For each sample, 50 µL were directly injected into the HPLC system.
The animal study has been designed and the results have been reported in accordance with the ARRIVE Guidelines. All animal experiments were conducted according to an experimental protocol approved by the Institutional Animal Care and Use Committee at Alexandria University (Serial Number 135) and in compliance with the Guide for the Care and Use of Laboratory Animals of the Institute for Laboratory Animal Research of the National Academy of Sciences, U.S.A. Animals were obtained from the animal facility at the Research and Innovation Hub at Alamein International University. Single dose pharmacokinetics of LES and ETC, as well as the effect of repeated administration of one on the PK parameters of the other reflecting the PK interactions if any, were assessed as described in our previous work[33]. Since the parameters of the oral pharmacokinetic investigation in experimental animals, in terms of feeding and fasting durations, oral dosing timing and volumes, blood sampling, as well as time intervals of redosing, can be controlled with relative ease, rat group sizes of 5–6 were sufficient for the detection of statistical difference in previous studies carried out in our laboratory[34],[35], and in other groups[36],[37], including studies that looked into the pharmacokinetics of ETC and LES[27],[38]. As will be seen below, the experiment was designed for paired comparison with before and ater measurements from the same rats, further increasing the power for statistical analysis. As such, ten healthy adult male Sprague-Dawley rats (8 weeks of age, ~ 250 g weight) were randomized into two groups of five rats each: LES PK group and ETC PK group. No criteria were set for animal allocation per group. Rats were housed in polycarbonate cages on wood shavings bedding at the animal facility at Alamein International University under controlled temperature (23 °C) and humidity (45%) and a 12-hour dark/light cycle. Rats were given ad libitum access to drinking water and commercial rodent chow (21% protein, Al-Fajr Animal Feed, Beheira, Egypt) prior to and during the experiment. The PK parameters of single doses of each drug were determined at baseline in the respective group and once more after seven days of administration of the other drug, without a washout period. To elaborate, on Day 0, following twelve hours of fasting, rats in each group received a single dose of the respective drug by oral gavage (15 mg/Kg for LES[27], and 5 mg/Kg for ETC[39]). […]

Where [5] appears, read: male, Sprague-Dawley, ETC 5 mg/Kg single oral dose alone (Day 0), rat plasma, Mean ± SEM.
[6] abbreviates: male, Sprague-Dawley, plasma, LES 15 mg/Kg single oral dose alone (Day 0), rat, Mean ± SEM.

The structures appear in SMILES notation. Read-outs that look alike come from different tables or passages of the source.

As for `COC(=O)[C@@H]1CC2=CC(=O)CC[C@]2(C)[C@@]23O[C@@H]2C[C@@]2(C)[C@@H](CC[C@@]24CCC(=O)O4)[C@H]13` [EPL, eplerenone], in data set [1], the recovery at 6 h, 1000 ng/ml is 101%; the recovery at 30 days, 1000 ng/ml amounted to 102%; the recovery at 6 h, 10000 ng/ml stood at 102%; the recovery at 30 days, 10000 ng/ml is 97.9%. In addition, in data set [1], the recovery at 6 h, 25000 ng/ml was determined as 102% and the recovery at 30 days, 25000 ng/ml stood at 98.9%. In addition, in data set [2], the recovery at 6 h, 1000 ng/ml came out at 105%; the recovery at 35 days, 1000 ng/ml came to 104%; the recovery at 1000 ng/ml is 91.9%; the recovery at 6 h, 10000 ng/ml was determined as 96.8%. In data set [2], the recovery at 35 days, 10000 ng/ml stood at 97.6%; the recovery at 10000 ng/ml came out at 94.3%; the recovery at 6 h, 25000 ng/ml is 94.2%; the recovery at 35 days, 25000 ng/ml turned out to be 92.6%. In data set [2], the recovery at 25000 ng/ml was found to be 103%.
In the case of `Cc1ccc(-c2ncc(Cl)cc2-c2ccc(S(C)(=O)=O)cc2)cn1` [ETC, etoricoxib], in data set [1], the recovery at 6 h, 1000 ng/ml worked out at 99.5%; the recovery at 30 days, 1000 ng/ml was 98.3%; the recovery at 6 h, 10000 ng/ml worked out at 99.5%; the recovery at 30 days, 10000 ng/ml worked out at 96.4%. Further, in data set [1], the recovery at 6 h, 25000 ng/ml worked out at 98.8% and the recovery at 30 days, 25000 ng/ml was 99.2%. Further, in data set [3] (ref PMID: 18840026), the “Binding to plasma albumin” value is given as “extensively bound to plasma albumin”. The molecule further showed a Ka in data set [4] (ETC 5 mg/Kg single oral dose alone (Day 0), rat, method of residuals, Mean ± SEM) of 1.82 ± 0.55 h⁻¹. Moreover, the k el in data set [4] (male, Sprague-Dawley, plasma, ETC 5 mg/Kg single oral dose alone (Day 0), rat, Mean ± SEM) is 4.17e-05 s⁻¹. Moreover, the half-life in data set [4] (male, Sprague-Dawley, plasma, ETC 5 mg/Kg single oral dose alone (Day 0), rat, one phase decay, Mean ± SEM) is 4.88 ± 0.56 h. For the same molecule, the Tmax in data set [4] (male, Sprague-Dawley, plasma, ETC 5 mg/Kg single oral dose alone (Day 0), rat, read-out: Tmax) stood at 1 h. In data set [4] (setting [5]), this molecule yielded a peak concentration (Cmax) of 1170 ± 148 ng/mL and an AUC of 11200 ng·h/mL. Besides, the “Change of absorption rate constant (Ka)” value in data set [4] (rat, ETC in the continued presence of LES vs alone) is given as “increased Ka”. In addition, in data set [4] (rat), the “Change of Ke” value is on record as “neither t1/2 nor Ke changed” and the “Change of area under the curve (AUC)” value was “increased”. In data set [2], this molecule displayed a recovery at 6 h, 1000 ng/ml of 97.5%; a recovery at 35 days, 1000 ng/ml of 95.8%; a recovery at 1000 ng/ml of 98%; a recovery at 6 h, 10000 ng/ml of 92.8%. In data set [2], the recovery at 35 days, 10000 ng/ml is 94.1%; the recovery at 10000 ng/ml was 95.3%; the recovery at 6 h, 25000 ng/ml came out at 92.7%; the recovery at 35 days, 25000 ng/ml was found to be 90.4%. This molecule yielded a recovery at 25000 ng/ml in data set [2] of 96.5%.
With `O=C(O)CSc1nnc(Br)n1-c1ccc(C2CC2)c2ccccc12` [LES, lesinurad], in data set [1], the recovery at 6 h, 1000 ng/ml was found to be 97.3%; the recovery at 30 days, 1000 ng/ml is 98.7%; the recovery at 6 h, 10000 ng/ml was 96.5%; the recovery at 30 days, 10000 ng/ml stood at 97.2%. Also, in data set [1], the recovery at 6 h, 25000 ng/ml was 94.8% and the recovery at 30 days, 25000 ng/ml was determined as 99.2%. In addition, the “Binding to plasma albumin” value in data set [3] (ref PMID: 31191704) is recorded as “extensively bound to plasma albumin”. Also, the Tmax in data set [4] (LES 15 mg/Kg single oral dose alone (Day 0), rat) came out at 2 h. This molecule registered a Ka in data set [4] (LES 15 mg/Kg single oral dose alone (Day 0), rat, Mean ± SEM) of 3.32 ± 0.78 h⁻¹. Further, in data set [4] (setting [6]), the half-life is 3.96 ± 1.07 h and the k el was 7.78e-05 s⁻¹. Further, in data set [4] (male, Sprague-Dawley, LES 15 mg/Kg single oral dose alone (Day 0), rat plasma, Mean ± SEM), the AUC is 9600 ± 1890 ng·h/mL. For the same molecule, the “Change of Cmax” value in data set [4] (rat, LES after repeated ETC administration vs alone) is recorded as “sharp increase in Cmax”. In addition, in data set [4] (rat), the “Change of Ke” value is on record as “neither t1/2 nor Ke changed” and the “Change of area under the curve (AUC)” value is recorded as “increased”. In data set [2], the recovery at 6 h, 1000 ng/ml amounted to 92.5%; the recovery at 35 days, 1000 ng/ml stood at 93.8%; the recovery at 1000 ng/ml worked out at 91.6%; the recovery at 6 h, 10000 ng/ml worked out at 92.5%. For the same molecule, in data set [2], the recovery at 35 days, 10000 ng/ml came out at 94.7%; the recovery at 10000 ng/ml turned out to be 93.8%; the recovery at 6 h, 25000 ng/ml came out at 96.1%; the recovery at 35 days, 25000 ng/ml worked out at 94.6%. In data set [2], the recovery at 25000 ng/ml was 92.7%.

Values taken from publication PMC11965454, “Simultaneous determination of lesinurad and co-administered drugs used in management of gout comorbidities to uncover potential pharmacokinetic interaction in rat plasma” (Scientific Reports, 2025).
